Reference: ChEMBL document CHEMBL1201862, “PubChem BioAssay data set” (2004)
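Protocol summary: plate cells (96-well), add compound at 5 concentrations, incubate 48 h, interpolate endpoints linearly. Here, GI50 denotes the concentration required for 50% inhibition of growth.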 Active and inactive are the calls of the source. Cut-off read from the data, not from the text of the source: active = GI50 up to about 1.1 µM and inactive = higher.

Tests used:
Assay in all cases: DTP human tumour cell line panel, 48 h
[1] = tested on: SW-620
[2] = tested on: OVCAR-8
[3] = tested on: LOX IMVI
[4] = tested on: COLO 205
[5] = tested on: OVCAR-5
[6] = tested on: UACC-62
[7] = tested on: A549
[8] = tested on: M14
[9] = tested on: CAKI-1
[10] = tested on: SN12C
[11] = tested on: Hs-578T
[12] = tested on: PC-3
[13] = tested on: HCT-116
[14] = tested on: SF-295
[15] = tested on: HCC 2998
[16] = tested on: HT-29
[17] = tested on: RPMI-8226
[18] = tested on: ACHN
[19] = tested on: OVCAR-3
[20] = tested on: HOP-92
[21] = tested on: A498
[22] = tested on: SK-MEL-5
[23] = tested on: CCRF-CEM
[24] = tested on: SF-539
[25] = tested on: SR
[26] = tested on: EKVX
[27] = tested on: U-251
[28] = tested on: MCF7
[29] = tested on: HCT-15
[30] = tested on: SK-OV-3
[31] = tested on: NCI-H23
[32] = tested on: DU-145
[33] = tested on: TK-10
[34] = tested on: T47D
[35] = tested on: Malme-3M
[36] = tested on: RXF 393
[37] = tested on: SK-MEL-28
[38] = tested on: MDA-MB-231
[39] = tested on: NCI-H226
[40] = tested on: MOLT-4
[41] = tested on: UO-31
[42] = tested on: NCI/ADR-RES
[43] = tested on: OVCAR-4
[44] = tested on: 786-0
[45] = tested on: SF-268
[46] = tested on: MDA-MB-435
[47] = tested on: SNB-75
[48] = tested on: NCI-H460
[49] = tested on: MDA-N
[50] = tested on: SK-MEL-2
[51] = tested on: IGROV-1
[52] = tested on: K562
[53] = tested on: NCI-H522
[54] = tested on: HOP-62
[55] = tested on: SNB-19
[56] = tested on: BT-549
[57] = tested on: KM12
[58] = tested on: UACC-257

In the case of `CCCCN1C(=O)c2c(-c3sccc3N)sc(-c3sccc3N)c2C1=O`, the GI50 [1] is reported as > 32.6 µM (inactive), the GI50 [2] is reported as 12.3 µM (inactive) and the GI50 [3] is reported as 30.7 µM (inactive). For the same molecule, the GI50 [4] was 15.4 µM (inactive), the GI50 [5] was 21.5 µM (inactive) and the GI50 [6] was 19.3 µM (inactive). The GI50 [7] was 24.1 µM (inactive), the GI50 [8] was 8.38 µM (inactive) and the GI50 [9] was 23.8 µM (inactive). The GI50 [10] was 19 µM (inactive), the GI50 [11] was 16.9 µM (inactive) and the GI50 [12] was 14.8 µM (inactive). The GI50 [13] was 21.7 µM (inactive), the GI50 [14] was 14.5 µM (inactive) and the GI50 [15] was 73.6 µM (inactive). For the same molecule, the GI50 [16] was 14.2 µM (inactive), the GI50 [17] was 4.47 µM (inactive) and the GI50 [18] was 15.7 µM (inactive). For the same molecule, the GI50 [19] was 16 µM (inactive), the GI50 [20] was 52 µM (inactive) and the GI50 [21] was 23.4 µM (inactive). For the same molecule, the GI50 [22] was 29.8 µM (inactive), the GI50 [23] was 4.05 µM (inactive) and the GI50 [24] was 12.4 µM (inactive). For the same molecule, the GI50 [25] was 1.98 µM (inactive), the GI50 [26] was 26.9 µM (inactive) and the GI50 [27] was 12.9 µM (inactive). For the same molecule, the GI50 [28] was 11.2 µM (inactive), the GI50 [29] was over 34.9 µM and the GI50 [30] was 10.6 µM (inactive). For the same molecule, the GI50 [31] was 28 µM (inactive), the GI50 [32] was 21.4 µM (inactive) and the GI50 [33] was 22.3 µM (inactive). For the same molecule, the GI50 [34] was 14.2 µM (inactive), the GI50 [35] was 21.6 µM (inactive) and the GI50 [36] was 12.6 µM (inactive). For the same molecule, the GI50 [37] was 7.98 µM (inactive), the GI50 [38] was 30.8 µM (inactive) and the GI50 [39] was 0.713 µM (active). For the same molecule, the GI50 [40] was 2.8 µM (inactive), the GI50 [41] was 6.84 µM (inactive) and the GI50 [42] was 21.3 µM (inactive). For the same molecule, the GI50 [43] was 10.9 µM (inactive), the GI50 [44] was 7.85 µM (inactive) and the GI50 [45] was 12.3 µM (inactive). The GI50 [46] was 30.8 µM (inactive), the GI50 [47] was 10.4 µM (inactive) and the GI50 [48] was 26.1 µM (inactive). For the same molecule, the GI50 [49] was 4.94 µM (inactive), the GI50 [50] was 32.7 µM (inactive) and the GI50 [51] was 23 µM (inactive). For the same molecule, the GI50 [52] was 16.3 µM (inactive), the GI50 [53] was 14.1 µM (inactive) and the GI50 [54] was 14.7 µM (inactive). The GI50 [55] was 18.9 µM (inactive), the GI50 [56] was 29.4 µM (inactive) and the GI50 [57] was 44.6 µM (inactive). The GI50 [58] was 56.1 µM (inactive).
